# According to publication PMC6376154 (International Journal for Parasitology: Drugs and Drug …, 2019):
# Where two headings read alike, the source gives them in different places.
# Columns and labels:
# [1] = system: F100TpM, a bovine lymphocyte cell line infected by T. parva; assay: 3H-thymidine incorporation growth assay on F100TpM cells (screen at 1 μM and IC50 titration); details: for TI (CC50/IC50), therapeutic index: CC50 on Con A blasts divided by IC50 on F100TpM;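 as to all read-outs here: growth inhibition compared against wells lacking compound, run in triplicate, and CC50 derived from 3H-thymidine uptake by PBMC stimulated with ConA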
# Method: (§1) All the MMV compounds were initially tested for inhibitory activity on the growth of F100TpM, a bovine lymphocyte cell line infected by T. parva. […] All compounds were tested in triplicate.
# (§2) The radiolabeled precursor ^3H-thymidine is incorporated into DNA strands during cell replication and radioisotope incorporation is often used as a measure of cell proliferation.
# (§3) IC50 values were calculated using the Graph Pad Prism 7 software (GraphPad Software, Inc., La Jolla, CA), and average values of radio-isotope incorporation in wells with and without compound on the growth of F100TpM cells. The CC50 values were calculated using ^3H-thymidine incorporation values determined on the growth of PBMC stimulated with ConA. The therapeutic index of a compound was calculated by dividing the CC50 value with the IC50 value.
# [2] = 3H-thymidine incorporation toxicity assay on ConA-stimulated uninfected bovine PBMC (CC50); details: bovine
# Method: as §1, §2, §3
# [3] = system: P. falciparum 3D7 asexual blood stage; details: cited from earlier work
# [4] = system: bovine PBMC stimulated with ConA (Con A blasts)
# Method: as §1, §2, §3
# [5] = Bos taurus, Lymphocyte, read-out: IC50 (μM) F100TpM, T. parva infected lymphocyte cell line, 48 h compound, 3H-thymidine incorporation
# [6] = uninfected bovine PBMC stimulated with ConA (Con A blasts), CC50 (μM) Con A blasts, uninfected bovine PBMC stimulated with ConA, 48 h compound, 3H-thymidine incorporation
# [7] = MMV Malaria Box sheet, ref MMV data sheets, read-out: EC50_nM
# [8] = source StJude, ref ChEMBL_NTD, read-out: CHEMBL EC50
# [9] = MMV Malaria Box data sheet, ref MMV data sheets
# [10] = MMV Malaria Box data sheet, ref MMV data sheets, read-out: EC50_nM
# [11] = source GNF, ref ChEMBL_NTD, read-out: CHEMBL EC50
# [12] = source GSK, ref ChEMBL_NTD, read-out: CHEMBL EC50
# [13] = ChEMBL-NTD value per source (GNF, GSK, StJude), several values in a cell follow the order of the sources, read-out: CHEMBL EC50
# [14] = MMV Malaria Box sheet, ref MMV data sheets
# [15] = MMV Malaria Box data sheet (supplement mmc2.xls), ref MMV data sheet
# [16] = value(s) per source (GSK, GNF, StJude), separated by semicolon, ref ChEMBL-NTD, read-out: CHEMBL EC50
# [17] = MMV Malaria Box data sheet (supplement mmc2.xls), ref MMV data sheet, read-out: EC50_nM
structure (smiles),measurement,setting,value
"CC(C)(C)[C@H]1CC[C@H](CC2=C(O)C(=O)c3ccccc3C2=O)CC1 [Buparvaquone, reference compound]",IC50,[1]; [5],0.0042 µM
same,"TI (CC50/IC50), therapeutic index",[1],>2380
same,"TI (CC50/IC50), therapeutic index",[1]; listed as buparvaquone,more than 2000
same,CC50 at 48 h,[2]; [6],> 10 µM
Oc1ccc(Br)cc1CN1CCN(Cc2cccc(F)c2)CC1 [MMV000356],EC50,[3]; [7],1030 nM
same,EC50,[3]; [8],1400 nM
same,IC50,"[1]; Bos taurus, Lymphocyte, read-out: IC50 (μM) F100TpM",0.87 µM
same,"TI (CC50/IC50), therapeutic index",[1],0.99
same,CC50 at 48 h,[2],0.86 µM
CCCN(CCC)CC(O)COc1ccccc1C(=O)Nc1ccccc1 (centres unmarked) [MMV006455],percent_inh @ 5 uM,[3]; [9],98%
same,EC50,[3]; [10],196 nM
same,EC50,[3]; [11],365 nM
same,EC50,[3]; [12],799 nM
same,IC50,[1]; [5],0.84 µM
same,"TI (CC50/IC50), therapeutic index",[1],1.07
same,CC50 at 48 h,[2]; [6],0.9 µM
COc1cc(-c2nc(-c3ccc(Sc4ccccc4)cc3)c(-c3ccccc3)[nH]2)cc(OC)c1O [MMV007273],EC50,[3]; [13],1280 nM
same,IC50,[1]; [5],0.04 µM
same,"TI (CC50/IC50), therapeutic index",[1],1.5
same,CC50 at 48 h,[2]; [6],0.06 µM
Clc1ccc2c(N3CCCC3)ccnc2c1 [MMV007363],percent_inh @ 5 uM,[3]; [14],97%
same,EC50,[3]; [7],944 nM
same,EC50,[3]; [11],283 nM
same,IC50,[1]; [5],1.93 µM
same,"TI (CC50/IC50), therapeutic index",[1],0.56
same,CC50 at 48 h,[2]; [6],1.09 µM
COc1ccc(-c2cnc3ccc(N4CCCC4)nn23)cc1OC [MMV023985],"TI (CC50/IC50), therapeutic index",[1],<0.001
same,IC50,"[1]; read-out: IC50 (μM) F100TpM, T. parva infected lymphocyte cell line, 48 h compound, 3H-thymidine incorporation",0.52 µM
same,CC50,[4],< 1 nM
CCOC(=O)c1cnc2c(CC)cccc2c1O [MMV498479],EC50,[3]; [13],1660 nM
same,IC50,[1]; [5],0.05 µM
same,"TI (CC50/IC50), therapeutic index",[1],2.6
same,CC50 at 48 h,[2]; [6],0.13 µM
CCOc1cc(Cl)c(C(C)NC(=O)c2ccccc2)cc1OCC (centres unmarked) [MMV665800],percent_inh @ 5 uM,[3]; [9],96%
same,EC50,[3]; [10],1370 nM
same,EC50,[3]; [12],875 nM
same,IC50,[1]; [5],0.49 µM
same,"TI (CC50/IC50), therapeutic index",[1],1.08
same,CC50 at 48 h,[2]; [6],0.53 µM
CCCc1cc(O)c2c3c(c(=O)oc2c1)CN(C)CC3 [MMV665841],percent_inh @ 5 uM,[3]; [9],97%
same,EC50,[3]; [10],146 nM
same,EC50,[3]; [11],554 nM
same,EC50,[3]; [12],873 nM
same,IC50,[1]; [5],0.36 µM
same,"TI (CC50/IC50), therapeutic index",[1],1.83
same,CC50 at 48 h,[2]; [6],0.66 µM
COc1ccc(C2N(C)c3ccccc3N2C)cc1 [MMV666075],percent_inh @ 5 uM,[3]; [15],62%
same,EC50,[3]; [16],15000 nM
Cc1ccc2cc3c(N)c4c(C)ccc(C)c4nc3nc2c1 [MMV666079],percent_inh @ 5 uM,[3]; [14],98%
same,EC50,[3]; [7],1310 nM
same,EC50,[3]; [11],431 nM
O=C(NC(c1ccccc1)c1ccc2cccnc2c1O)c1ccccc1 (centres unmarked) [MMV666080],percent_inh @ 5 uM,[3]; [15],95%
same,EC50,[3]; [17],1170 nM
CCCc1c(C)nc2ccccc2c1O [MMV666081],percent_inh @ 5 uM,[3]; [15],88%
same,EC50,[3]; [16],630 nM
CCCC(c1nnnn1C1CCCCC1)N1CCN(C(=O)c2ccco2)CC1 (centres unmarked) [MMV666093],percent_inh @ 5 uM,[3]; [15],82%
same,EC50,[3]; [16],1330 nM
CCCc1c(C)nc2ccc(Br)cc2c1O [MMV666095],percent_inh @ 5 uM,[3]; [14],64%
same,EC50,[3]; [7],1190 nM
same,EC50,[3]; [11],1510 nM
COc1ccc(C2=C(c3ccc(OC)cc3)C3(c4ccccc4)C(=O)C2(c2ccccc2)C2C(=O)N(c4ccc(C)cc4)C(=O)C23)cc1 (centres unmarked) [MMV666101],percent_inh @ 5 uM,[3]; [9],98%
same,EC50,[3]; [10],148 nM
same,EC50,[3]; [11],12500 nM
CN(C)c1ccc(-c2nc3cc(N)ccc3[nH]2)cc1 [MMV666102],percent_inh @ 5 uM,[3]; [15],64%
same,EC50,[3]; [16],239 nM
CCn1c(SCC(=O)Nc2cc(C(F)(F)F)ccc2Cl)nc2ccccc2c1=O [MMV666103],percent_inh @ 5 uM,[3]; [9],91%
same,EC50,[3]; [10],1000 nM
same,EC50,[3]; [12],397 nM
COCCN(C(=O)Cc1cccs1)C(C(=O)NCc1ccc(OC)cc1)c1ccc(C(C)C)cc1 (centres unmarked) [MMV666105],percent_inh @ 5 uM,[3]; [9],92%
same,EC50,[3]; [10],1190 nM
same,EC50,[3]; [12],845 nM
O=C(NC1CCCCC1)C(c1cccs1)N(CCc1ccccc1)C(=O)c1ccco1 (centres unmarked) [MMV666106],EC50,[3]; [13],1040 nM
O=C(CCc1ccco1)NC1CCN(CC2(c3ccc(Cl)cc3)CCC2)CC1 [MMV666108],percent_inh @ 5 uM,[3]; [15],96%
same,EC50,[3]; [17],1140 nM
same,EC50,[3]; [16],1450 nM
CCOC(=O)C1(Cc2ccccc2)CCN(Cc2cccc(OC)c2O)CC1 [MMV666109],percent_inh @ 5 uM,[3]; [14],95%
same,EC50,[3]; [8],2290 nM
C=C(C)CCC(C)N1CCC(N2CCC(C(=O)NCCc3ccccc3)CC2)CC1 (centres unmarked) [MMV666110],percent_inh @ 5 uM,[3]; [15],96%
same,EC50,[3]; [17],1750 nM
same,EC50,[3]; [16],4260 nM
